Results reported in patent publication US7659333B2, “Fluorinated surfactants for use in making a fluoropolymer” (3M Innovative Properties Company, priority 2005, dated 2010).

Test: Determination of bio-accumulation: urinary clearance pharmacokinetic study in rats
Assay type: in vivo, male Sprague Dawley rats
Procedure: The goal was to measure the total amount of parent compound eliminated via urinary output and estimate the rate of elimination.
The study utilized male Sprague Dawley rats, 6 to 8 weeks of age, and approximately 200 to 250 g body weight at study onset. The test compounds of table 2 were administered at a dose of 73 micro Moles per kg body weight in rats (N=3 animals per tested compound). All test compounds were prepared in sterile deionized water and given to rats via oral gavage. After test compounds administration, the rats were housed individually in metabolism cages for urine collection: 0 to 6 hours, 6 to 24 hours, 24 to 48 hours and 72 to 96 hours. Animals were observed throughout the study for clinical signs of toxicity. Gross necropsy was performed at the termination of each study (96 hours post-dose) with sera and liver samples being retained from each animal.
The concentration of the parent compound or metabolites thereof were quantitatively measured via fluorine NMR on each urine sample for each animal at each time point based on internally added standards.
T ½ and % recovery are based on elimination of the major metabolite—C3F7—O—CHFCOO^−. T1/2 is the renal half-life and is the time required for the amount of a particular substance in a biological system to be reduced to one half of its value by biological processes when the rate of removal is approximately exponential. In these examples the value of T1/2 is calculated by exponential least squares curve fitting (y=Ae^Bx and T1/2=0.693/B) where y represents the concentration of analyte in urine and x represents time in hours.

Compound	% Recovery (96 h) (male Sprague Dawley rats, 73 micro Moles per kg oral gavage, recovery in urine after 96 h, values marked * based on major metabolite C3F7—O—CHFCOO−) [%]	Compound-related Effects (male Sprague Dawley rats, 73 micro Moles per kg oral gavage, clinical signs observed, gross necropsy at 96 hours post-dose)	half-life (rat, in vivo, 73 micro Moles per kg body weight, male Sprague Dawley rats, 73 micro Moles per kg oral gavage, urine 0-96 h by fluorine NMR, exponential least squares fit, values marked * based on elimination of major metabolite C3F7—O—CHFCOO−, read-out: T ½ (h) (renal half-life))	parent compound in the urine (rat, in vivo, po)
N.O=C(O)C(F)(F)C(F)(F)C(F)(F)C(F)(F)C(F)(F)C(F)(F)C(F)(F)F [APFO, ammonium perfluorooctanoic acid]	6	Hepatomegaly	~550	
C3F7—O—C2HF3—O—CH2—COO^−NH4 [Example 2]				No parent compound observed in the urine
